Test results: US6656914B2, “Method for treating tumors caused by APC gene mutation with anthocyanins and cyanidin” (Board of Trustees of Michigan State University, priority 2000, dated 2003)
“Also recorded” adds a separate entry of the source. Marks after values point to notes of the source that are not given here.

Test system: intestinal adenomas in Min mice (Apc^min/Apc^+)
Experiment: Intestinal tumorigenesis in Min mice fed treatment diets for 10 weeks (adenoma number and size)
Format: in vivo
Conditions: for Adenoma numbers in the small intestine, Distal / Adenoma numbers in the small intestine, Middle / Adenoma numbers in the small intestine, Proximal / Total Adenoma Diameter in the small intestine / Adenoma numbers in the small intestine, Total: 800 ppm anthocyanins; for Adenoma numbers in the small intestine, Distal / Adenoma numbers in the small intestine, Middle / Adenoma numbers in the small intestine, Proximal / Total Adenoma Diameter in the small intestine: 200 ppm cyanidin or 200 ppm sulindac in drinking water, or 20% cherries diet; for Adenoma numbers in the small intestine, Distal / Adenoma numbers in the small intestine, Middle / Adenoma numbers in the small intestine, Proximal / Total Adenoma Diameter in the small intestine / Adenoma numbers in the small intestine, Total / Colon Total adenoma Volume / Cecal Total adenoma Volume / Cecum adenoma Number / Colon adenoma Number / Mean Adenoma Diameter in the small intestine / Average number of solid tumors, Cecum / Average number of solid tumors, Colon / Average number of solid tumors, Total (cecum and colon): mean ± SEM; for Adenoma numbers in the small intestine, Total: 200 ppm cyanidin or 200 ppm sulindac in drinking water, or 20% freeze-dried cherries in diet; for Colon Total adenoma Volume / Cecal Total adenoma Volume / Cecum adenoma Number / Colon adenoma Number / Mean Adenoma Diameter in the small intestine / Average number of solid tumors, Cecum / Average number of solid tumors, Colon / Average number of solid tumors, Total (cecum and colon): same treatments; for Cecal Total adenoma Volume / Cecum adenoma Number / Colon adenoma Number / Mean Adenoma Diameter in the small intestine: different superscripts = significant differences (P < 0.05); for Average number of solid tumors, Cecum / Average number of solid tumors, Colon / Average number of solid tumors, Total (cecum and colon): three-dimensional raised tumors
Description: Forty-eight Min mice were randomly assigned to five treatment groups at 4-5 weeks of age and fed treatment diets for 10 weeks. The treatments were:
1) Modified AIN-93G control diet, 2) The control diet +800 ppm anthocyanins in drinking water, 3) The control diet+200 ppm cyanidin in drinking water, 4) The control diet+200 ppm sulindac in drinking water, 5) Modified control diet containing 20% freeze dried pitted tart cherries. Only mean diameter, not the number of adenomas in the small intestine was reduced by sulindac, whereas diameter was increased by cherry diet (p<0.05).
All research was conducted with approval of the Michigan State University, East Lansing, Mich., All-University Committee on animal use and care. Mice were housed in MSU Laboratory, Animal Resources maintained facilities. A colony of Min mice was maintained by crossing male Min mice (Apc^min/Apc^+) with normal adult C57BL/6J female mice. Mice were housed in a temperature and humidity-controlled room (20-22° C., 70%) with a 12-h light/dark cycle. At three weeks of age, mice were bled from the dorsal pedal vein (30 μL) for genotyping analysis to identify Apc^min/Apc^+ using polymerase chain reaction (PCR) analysis and subsequent gel electrophoresis analysis. Forty-eight Min mice identified were randomly assigned to five treatment groups (7 to 11 per treatment) at 4 or 5 weeks of age and fed treatment diets for 10 weeks. The treatments were:
1) Modified AIN-93G control diet and 50 ppm ascorbic acid in drinking water (n=11)
2) The control diet+50 ppm ascorbic acid and 800 ppm anthocyanins in drinking water (n=9)
3) The control diet+50 ppm ascorbic acid and 200 ppm cyanidin in drinking water (n=7)
4) The control diet+50 ppm ascorbic acid and 200 ppm sulindac in drinking water (n=10)
5) 20% freeze-dried cherries+50 ppm ascorbic acid in drinking water (n=11).
Ingredient composition of diets is in Table 1. All diets contained 22% protein, 15% fat (soybean oil) and 5% cellulose contents. Distilled water was used for drinking water. Ascorbic acid was added to provide low pH for keeping anthocyanins and cyanidin in solution since they are stable only under pH 7. The concentration of sulindac (200 ppm) was based on the effective range found from most studies that have shown sulindac to reduce intestinal neoplasia. Cyanidin concentration (200 ppm) was matched to that of sulindac. Anthocyanins was tested at the level four times the cyanidin concentration because anthocyanins are the glycosylated cyanidin and the level (800 ppm) has equivalent amount of flavylium cation. Red tart pitted cherries (Peerson Farms, Inc., Shelby, Mich.) were frozen, freeze-dried, ground using plate grinder, and then screened to pass a 1 mm screen before they were incorporated into the diet at the expense of sucrose, cornstarch and dyetrose. One hundred grams of the experimental diet included 23 g of ground cherries to make 20% of cherries in the diet because dry matter of cherries was 75%, whereas that of AIN-93G diet was 91%.
Body weight was measured once a week until mice were sacrificed at the end of treatment period. Upon sacrifice by carbon dioxide asphyxiation, the liver was removed and frozen immediately for confirmatory PCR analysis. The entire small intestine, cecum, and colon were removed from each mouse to determine the number and size of adenomas. The tissues were separated into the following sections: proximal one-third of small intestine, middle one-third of small intestine, distal one-third of small intestine, cecum, and colon. All intestinal sections were opened longitudinally, rinsed thoroughly with water, fixed overnight in 10% neutral-buffered formalin, and then stained with 0.2% methylene blue. Tumor number and size (diameter for flat tumors or volume in the case of three-dimensional tumors) were determined in each intestinal segment on 1 mm grid transparency by direct counting with the aid of a dissecting microscope. […]

| SMILES | Adenoma numbers in the small intestine, Distal | Adenoma numbers in the small intestine, Middle | Adenoma numbers in the small intestine, Proximal | Total Adenoma Diameter in the small intestine [mm] | Adenoma numbers in the small intestine, Total | Colon Total adenoma Volume [mm^3] | Cecal Total adenoma Volume | Cecum adenoma Number | Colon adenoma Number | Mean Adenoma Diameter in the small intestine | Average number of solid tumors, Cecum | Average number of solid tumors, Colon | Average number of solid tumors, Total (cecum and colon) | Intestinal site of inhibited tumorigenesis (conclusion in words) | Number of cecal adenomas compared to controls (in words) | Size (volume) of adenomas in the cecum (in words) | Trend in number of adenoma in the proximal section of the small intestine (in words) (P=0.05) | Number of colonic adenomas (in words) (p<0.05) | Mean diameter (size) of adenoma in the small intestine, effect compared to control diet (in words) (p<0.05, listed as sulindac) | Number of colonic adenomas (in words) (p<0.05, listed as sulindac) |
| --- | --- | --- | --- | --- | --- | --- | --- | --- | --- | --- | --- | --- | --- | --- | --- | --- | --- | --- | --- | --- |
| Oc1cc(O)c2cc(O)c(-c3ccc(O)c(O)c3)[o+]c2c1 [Cyanidin] | 20.0 ± 7.8 | 15.7 ± 5.8 | 15.6 ± 3.5 | 67.4 ± 22.0 | 51.3 ± 15.8 | 3.51 ± 2.24 | 0.56 ± 0.96^b mm^3 | 0.57 ± 0.63^b | 3.71 ± 0.80^ab | 1.25 ± 0.11^b mm | 0.00 ± 0.13 | 0.14 ± 0.21 | 0.14 ± 0.25 | – | – | – | – | – | – | – |
| CC1=C(CC(=O)O)c2cc(F)ccc2/C1=C\c1ccc([S+](C)[O-])cc1 (stereo not drawn) [Sulindac, sulindac] | 10.0 ± 6.5 | 9.1 ± 4.9 | 5.6 ± 2.9 | 23.5 ± 18.4 | 24.7 ± 13.2 | 3.35 ± 1.88 | 4.00 ± 0.81^a mm^3 | 4.00 ± 0.53^c | 5.30 ± 0.67^b | 0.93 ± 0.10^a mm | 0.20 ± 0.11 | 0.20 ± 0.17 | 0.40 ± 0.21 | inhibits small intestinal tumorigenesis | significantly more cecal adenomas than controls; also recorded: significantly higher number of cecal adenomas; also recorded: increased the number of adenomas in cecum and colon | increased | reduced | twice as many adenomas as those of mice in cherry diet | significantly reduced the size of adenomas in small intestine | greatest number of colonic adenomas; also recorded: increased the number of adenomas in cecum and colon |
